Source: PMC11078216, “Discovery of potent and selective activity-based probes (ABPs) for the deubiquitinating enzyme USP30” (RSC Chemical Biology, 2024)

Molecular target: T1, ALDH1A2 (Homo sapiens, UniProt O94788)
T1 construct: endogenous in cells; host or cells: HEK293T
T1 sequence (O94788 1-518): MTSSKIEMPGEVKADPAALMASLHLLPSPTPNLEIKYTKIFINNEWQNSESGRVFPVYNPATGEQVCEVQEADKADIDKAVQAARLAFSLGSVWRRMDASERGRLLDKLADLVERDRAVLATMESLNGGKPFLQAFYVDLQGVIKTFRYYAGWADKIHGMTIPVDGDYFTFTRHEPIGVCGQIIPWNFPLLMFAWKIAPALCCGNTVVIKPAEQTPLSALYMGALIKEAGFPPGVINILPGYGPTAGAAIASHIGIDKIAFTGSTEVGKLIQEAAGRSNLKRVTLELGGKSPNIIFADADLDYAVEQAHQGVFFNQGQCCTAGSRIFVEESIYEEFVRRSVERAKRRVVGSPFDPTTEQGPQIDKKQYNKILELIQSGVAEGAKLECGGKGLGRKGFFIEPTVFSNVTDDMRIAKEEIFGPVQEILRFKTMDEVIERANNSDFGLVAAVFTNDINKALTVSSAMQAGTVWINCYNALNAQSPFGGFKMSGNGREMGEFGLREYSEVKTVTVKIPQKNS
Assay: ABPP chemical proteomics (LC-MS/MS) in HEK293T cells
Assay type: cell-based
Procedure: To explore the selectivity of IMP-2587 and IMP-2586 across the whole proteome, we performed quantitative activity-based protein profiling (ABPP) in HEK293T cells following treatment with IMP-2587 or IMP-2586 (Fig. 3a). After ABP incubation, cells were lysed, and probe-labelled proteins were ligated to biotinylated capture reagents.[27] […] USP30 was outcompeted by corresponding parent inhibitors for each ABP (Fig. 5b and d and Tables S3 and S5, ESI ^†), confirming the high potency and rapid engagement of IMP-2587 and IMP-2586 in cells. […] DESI1 and DESI2 are small ubiquitin-related modifier (SUMO) proteases,[3,29–32] and IMP-2587 and IMP-2586 may offer a starting point for future development of DESI ABPs. […]
d) Live cell probe incubation, lysate click chemistry and precipitation 6-well HEK293T cells were incubated with media containing compounds ABP 2 and ABP 4 at indicated concentrations for 1 h at 37 °C. The cells were washed with PBS and lysed with lysis buffer (50 μL (1% (v/v) Triton X-100, 0.1% (w/v) sodium dodecyl sulfate (SDS), EDTA-free complete protease inhibitor cocktail (1×, Roche) in PBS on ice for 10 min. The lysates were scraped and transferred to corresponding Lo-Bind Eppendorfs. Each lysate was sonicated for 1 minute, and the samples centrifuges at 5,000 x g at 4 °C for 5 minutes to pellet insoluble cellular debris. The supernatant was collected, and protein concentration was determined using the DC Protein Assay (Bio-Rad) as per manufacturer’s instructions, and normalised to lowest concentrated sample (e.g. 1 mg/mL, using lysis buffer). The following “click mixture” was prepared separately, preparing 6 μL for every 100 μL of […]
Capture reagent (AzRB/AzT for ABP 2, YnT/YnB for ABP 4 10 mM in DMSO, 1 vol; final concentration […]
CuSO4 (50 mM in water, 2 vol; final concentration in reaction 1 mM)
TCEP (50 mM in water, 2 vol; final concentration in reaction 1 mM)
TBTA (10 mM in DMSO, 1 vol; final concentration in reaction 100 µM)
The click mixture was vortexed and incubated at room temperature for 2 min before 6 μL of the mixture was added to every 100 μL of lysate. The reaction mixtures were shaken at room temperature for 1 h before being quenched with EDTA (500 mM in H2O) to a final concentration of 10 mM.
Proteins were precipitated by adding H2O (1 vol), MeOH (2 vol) and CHCl3 (0.5 vol), vortexing briefly then centrifuging at 17,000 × g for 5 min. The top H2O/MeOH layer was discarded and the middle layer of protein pellet and lower CHCl3 layer retained. The suspension was washed with MeOH (300 μL), and sonicated to break up the pellet. The proteins were pelleted by centrifugation at 10,000–17000 × g for 5–10 min or until a compact pellet was formed. The protein pellet was washed once more with MeOH (1 mL). The pellet was resuspended by sonicating and completely dissolving in 1% (w/v) SDS in PBS (to 5 mg/mL protein) before being made up to 1 mg/mL protein with PBS.
The lysate samples (10-20 μg) were mixed with 4× Laemmli sample loading buffer (250 mM Tris -HCl pH 6.8, 30% (v/v) glycerol, 10% (w/v) SDS, 0.05% (w/v) bromophenol blue) supplemented with 20% v/v β-mercaptoethanol (BME) and boiled for 10 min at 95 °C. The resulting protein samples were separated according to the protocol in section 3.2.c. Gel were imaged on a Typhoon imager (GE Healthcare; λEx 532 nm, λEm 575 nm for TAMRA. For protein loading quantification, gels were stained with Coomassie blue staining solution overnight, rinsed with water and imaged on an ImageQuant™ LAS 4000 imager (GE Healthcare). f) Neutravidin biotin enrichment (Affinity pull-down)
Click chemistry and precipitation steps were carried out as described in section 3.2.d, on at least 400ug of protein per sample. The pellet was resuspended by sonicating and completely dissolving in 1% (w/v) SDS in HEPES 50 mM pH 8.0, before being made up to 1 mg/mL protein with HEPES 50 mM pH 8.0 to […]
achieve a final concentration of 0.2% SDS. 20uL of each samples was collected as TL (Total lysate) […]
samples. […]

N#CN1CC[C@@H](NC(=O)c2cc(-c3ccccc3Oc3ccc(N=[N+]=[N-])cc3)n[nH]2)C1 [IMP-2586]
Difference (log2 fold change of enrichment) (IMP-2586 labelling vs DMSO, 30 nM, 10 min, HEK293T (Table S4, Fig.5c)): 3.54

C#Cc1cccc(-c2cc(NC(=O)CC3CCN(C#N)C3)on2)c1 (stereo not shown) [IMP-2587]
Difference (log2 fold change of enrichment) (IMP-2587 labelling vs DMSO, 30 nM, 10 min, HEK293T (Table S2, Fig.5a)): 3.97

N#CN1CC[C@H](CC(=O)Nc2cc(-c3cccc(Cl)c3)no2)C1 [compound 1, reference compound]
Difference (log2 fold change of enrichment) (compound 1 out-competition with IMP-2587 labelling, HEK293T (Table S3, Fig.5b)): -3.93

N#CN1CC[C@@H](NC(=O)c2cc(-c3ccccc3Oc3ccccc3)n[nH]2)C1 [compound 3, reference compound]
Difference (log2 fold change of enrichment) (compound 3 out-competition with IMP-2586 labelling, HEK293T (Table S5, Fig.5d)): -2.44
